Row | melting point [°C] | SMILES
1 | 109 to 110 | Cc1oc(-c2ccc(F)cc2)cc1COc1cccc(COCC(=O)O)c1 [Example 6(11), [(3-{[5-(4-Fluorophenyl)-2-methyl-3-furyl]methoxy}benzyl)oxy]acetic acid]
2 | 80 to 82 | CCCCc1oc(-c2ccc(C(F)(F)F)cc2)cc1CCCOc1cccc(CC(=O)O)c1 [Example 6(15), [3-(3-{2-Butyl-5-[4-(trifluoromethyl)phenyl]-3-furyl}propoxy)phenyl]acetic acid]
3 | 182 to 183 | Cc1oc(-c2ccc(C(F)(F)F)cc2)cc1COc1ccc(CCC(=O)O)cc1 [Example 6(123), 3-[4-({2-Methyl-5-[4-(trifluoromethyl)phenyl]-3-furyl}methoxy)phenyl]propionic acid]
4 | 120 to 123 | Cc1oc(-c2ccc(C(F)(F)F)cc2)cc1COc1cc(CSC(C)(C)C(=O)O)ccc1F [Example 6(94), 2-{[4-Fluoro-3-({2-methyl-5-[4-(trifluoromethyl)phenyl]-3-furyl}methoxy)benzyl]thio}-2-methylpropionic acid]
5 | 125 to 126 | COC(Cc1ccc(OCc2cc(-c3ccc(C(F)(F)F)cc3)oc2C)cc1C)C(=O)O (centres unmarked) [Example 6(77), 2-Methoxy-3-[2-methyl-4-({2-methyl-5-[4-(trifluoromethyl)phenyl]-3-furyl}methoxy)phenyl]propionic acid]
6 | 134 to 135 | Cc1oc(-c2ccc(C(F)(F)F)cc2)cc1CCCOc1ccc(OCC(=O)O)cc1 [Example 6(25), [4-(3-{2-Methyl-5-[4-(trifluoromethyl)phenyl]-3-furyl}propoxy)phenoxy]acetic acid]
7 | 84 to 85 | O=C(O)CSCc1cccc(OCc2cc(-c3ccccc3)oc2C(F)(F)F)c1 [Example 5(4), [(3-{[5-Phenyl-2-(trifluoromethyl)-3-furyl]methoxy}benzyl)thio]acetic acid]
8 | 61 to 62 | CCCC(SCc1cccc(OCc2cc(-c3ccc(C(F)(F)F)cc3)oc2C)c1)C(=O)O (centres unmarked) [Example 9(4), 2-{[3-({2-Methyl-5-[4-(trifluoromethyl)phenyl]-3-furyl}methoxy)benzyl]thio}pentanoic acid]
9 | 148 to 149 | Cc1oc(-c2ccc(C(F)(F)F)cc2)cc1COc1cccc(CSC(C)(C)C(=O)O)c1 [Example 6(109), 2-Methyl-2-{[3-({2-methyl-5-[4-(trifluoromethyl)phenyl]-3-furyl}methoxy)benzyl]thio}propionic acid]
10 | 118 to 120 | Cc1cc(OCCc2cc(-c3ccc(C(F)(F)F)cc3)oc2C)ccc1CCC(=O)O [Example 6(22), 3-[2-Methyl-4-(2-{2-methyl-5-[4-(trifluoromethyl)phenyl]-3-furyl}ethoxy)phenyl]propionic acid]
11 | 111 to 112 | CCc1oc(-c2ccc(C(F)(F)F)cc2)cc1CCCOc1ccc2sc(CC(=O)O)cc2c1 [Example 6(102), [5-(3-{2-Ethyl-5-[4-(trifluoromethyl)phenyl]-3-furyl}propoxy)-1-benzothien-2-yl]acetic acid]
12 | 116 to 117 | Cc1oc(-c2cccc(F)c2)cc1COc1cccc(CSC(C)(C)C(=O)O)c1 [Example 6(112), 2-[(3-{[5-(3-Fluorophenyl)-2-methyl-3-furyl]methoxy}benzyl)thio]-2-methylpropionic acid]
13 | 140 to 141 | CCCN(C(=O)c1cc(-c2ccc(F)cc2)oc1C)c1cccc(CSCC(=O)O)c1 [Example 1(2), [(3{[5-(4-Fluorophenyl)-2-methyl-3-furoyl](propyl)amino}benzyl)thio]acetic acid]
14 | 128 to 129 | Cc1oc(-c2ccc(C(F)(F)F)cc2)cc1COc1ccc(SC(C)(C)C(=O)O)cc1 [Example 6(88), 2-Methyl-2-{[4-({2-methyl-5-[4-(trifluoromethyl)phenyl]-3-furyl}methoxy)phenyl]thio}propionic acid]
15 | 153 to 154 | Cc1oc(-c2ccc(C(F)(F)F)cc2)cc1COc1ccc2sc(CC(=O)O)cc2c1 [Example 6(101), [5-({2-Methyl-5-[4-(trifluoromethyl)phenyl]-3-furyl}methoxy)-1-benzothien-2-yl]acetic acid]
16 | 121 to 122 | Cc1oc(-c2ccc(C(F)(F)F)cc2)cc1COc1cccc(CSC2(C(=O)O)CCC2)c1 [Example 9(3), 1-{[3-({2-Methyl-5-[4-(trifluoromethyl)phenyl]-3-furyl}methoxy)benzyl]thio}cyclobutanecarboxylic acid]
17 | 131 to 132 | Cc1oc(-c2ccc(C(F)(F)F)cc2)cc1COc1ccc(F)c(CSC(C)(C)C(=O)O)c1 [Example 6(95), 2-{[2-Fluoro-5-({2-methyl-5-[4-(trifluoromethyl)phenyl]-3-furyl}methoxy)benzyl]thio}-2-methylpropionic acid]
18 | 143 to 144 | Cc1oc(-c2ccc(Cl)cc2)cc1COc1cccc(CSC(C)(C)C(=O)O)c1 [Example 6(111), 2-[(3-{[5-(4-Chlorophenyl)-2-methyl-3-furyl]methoxy}benzyl)thio]-2-methylpropionic acid]
19 | 124 to 126 | Cc1nc(SCCc2cc(-c3ccc(F)cc3)oc2C)sc1CC(=O)O [Example 6(38), [2-({2-[5-(4-Fluorophenyl)-2-methyl-3-furyl]ethyl}thio)-4-methyl-1,3-thiazol-5-yl]acetic acid]
20 | 137 to 138 | CCc1oc(-c2ccc(C(F)(F)F)cc2)cc1CCCOc1cc(CC(=O)O)ccc1OC [Example 6(40), [3-(3-{2-Ethyl-5-[4-(trifluoromethyl)phenyl]-3-furyl}propoxy)-4-methoxyphenyl]acetic acid]
21 | 178 to 179 | Cc1oc(-c2ccc(C(F)(F)F)cc2)cc1COc1cccc(-c2cccc(C(=O)O)c2)c1 [Example 6(125), 3′-({2-Methyl-5-[4-(trifluoromethyl)phenyl]-3-furyl}methoxy)-1,1′-biphenyl-3-carboxylic acid]
22 | 113 to 114 | Cc1oc(-c2ccccc2)cc1COc1cccc(CSC(C)(C)C(=O)O)c1 [Example 6(119), 2-Methyl-2-({3-[(2-methyl-5-phenyl-3-furyl)methoxy]benzyl}thio)propionic acid]
23 | 125 to 127 | Cc1oc(-c2ccc(C(F)(F)F)cc2)cc1COc1ccc(CC(C)(C)C(=O)O)cc1 [Example 6(78), 2,2-Dimethyl-3-[4-({2-methyl-5-[4-(trifluoromethyl)phenyl]-3-furyl}methoxy)phenyl]propionic acid]
24 | 120 to 121 | Cc1nc(CCc2cc(-c3ccc(C(F)(F)F)cc3)oc2C)oc1CC(=O)O [Example 13(6), [4-Methyl-2-(2-{2-methyl-5-[4-(trifluoromethyl)phenyl]-3-furyl}ethyl)-1,3-oxazol-5-yl]acetic acid]
25 | 156 to 157 | Cc1oc(-c2ccc(C(F)(F)F)cc2)cc1COc1ccc2oc(CCC(=O)O)cc2c1 [Example 6(89), 3-[5-({2-Methyl-5-[4-(trifluoromethyl)phenyl]-3-furyl}methoxy)-1-benzofuran-2-yl]propionic acid]

Row | SMILES | melting point [°C]
26 | Cc1oc(-c2ccc(C(F)(F)F)cc2)cc1CCCCOc1ccc(OC(C)(C)C(=O)O)cc1 [Example 6(104), 2-Methyl-2-[4-(4-{2-methyl-5-[4-(trifluoromethyl)phenyl]-3-furyl}butoxy)phenoxy]propionic acid] | 67 to 69
